Measurements taken from patent EP2945947B1, “INHIBITING THE TRANSIENT RECEPTOR POTENTIAL A1 ION CHANNEL” (Merck Sharp & Dohme Corp., priority 2013, dated 2014).
In brackets after ≈: the same amount, converted by molar mass. Like-named read-outs stand apart in the source and are kept apart here.

Assays:
human TRPA1 = human TRPA1 (Homo sapiens, UniProt O75762); assay: Inhibition of the TRPA1 ion channel, whole cell patch configuration (Example 1); assay type: cell-based; details: current activation 10 µM AITC, read-out: Human TRPA1 IC50 Inward Current
Sequence of human TRPA1 (O75762 whole entry): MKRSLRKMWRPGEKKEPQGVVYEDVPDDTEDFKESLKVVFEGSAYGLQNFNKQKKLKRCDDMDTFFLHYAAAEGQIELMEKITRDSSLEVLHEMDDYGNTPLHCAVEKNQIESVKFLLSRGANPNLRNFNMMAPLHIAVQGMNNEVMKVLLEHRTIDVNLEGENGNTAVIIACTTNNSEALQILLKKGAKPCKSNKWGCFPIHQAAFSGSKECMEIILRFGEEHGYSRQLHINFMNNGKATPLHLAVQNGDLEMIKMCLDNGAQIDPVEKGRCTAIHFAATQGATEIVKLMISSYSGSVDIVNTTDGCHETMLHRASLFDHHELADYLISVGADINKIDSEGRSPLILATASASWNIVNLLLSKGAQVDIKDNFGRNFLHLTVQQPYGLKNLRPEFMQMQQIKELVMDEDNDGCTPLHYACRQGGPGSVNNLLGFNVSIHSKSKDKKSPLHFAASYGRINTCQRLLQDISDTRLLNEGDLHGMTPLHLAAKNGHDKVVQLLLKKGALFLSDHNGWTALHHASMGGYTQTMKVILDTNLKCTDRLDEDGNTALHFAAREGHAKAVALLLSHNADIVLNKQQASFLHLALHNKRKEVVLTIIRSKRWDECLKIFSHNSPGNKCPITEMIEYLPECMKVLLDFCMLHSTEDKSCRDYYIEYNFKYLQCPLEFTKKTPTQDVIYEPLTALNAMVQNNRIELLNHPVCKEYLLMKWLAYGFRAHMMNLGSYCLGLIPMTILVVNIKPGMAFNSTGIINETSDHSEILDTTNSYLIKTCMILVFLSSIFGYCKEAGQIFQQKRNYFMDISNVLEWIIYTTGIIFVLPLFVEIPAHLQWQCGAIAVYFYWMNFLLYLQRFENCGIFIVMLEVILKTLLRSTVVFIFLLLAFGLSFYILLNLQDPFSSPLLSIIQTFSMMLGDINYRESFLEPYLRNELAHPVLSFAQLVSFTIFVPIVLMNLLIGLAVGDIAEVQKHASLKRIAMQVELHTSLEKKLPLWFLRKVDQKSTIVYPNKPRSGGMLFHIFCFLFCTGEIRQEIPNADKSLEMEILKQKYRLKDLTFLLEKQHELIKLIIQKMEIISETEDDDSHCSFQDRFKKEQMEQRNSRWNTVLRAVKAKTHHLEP
Protocol: Compounds of Formula (Ia) inhibit the TRPA1 channel, as measured using the method of Example 1. […] Data for TRPA1 inhibition and for TRPA1 selectivity was obtained by this method for the indicated compounds of Formula (Ia), with the relevant data included in Tables 1a - f below. All currents were recorded in whole-cell configuration using EPC-9 and EPC-10 amplifiers and Patchmaster software (HEKA). […] The standard pipette solution consisted of 140mM CsAsp, 10 mM EGTA, 10 mM HEPES, 2.27 mM MgCl2, 1.91 mM CaCl2, 4 mM MgATP, and 0.1-0.3 mM Na2GTP, with pH adjusted to 7.2 with CsOH. In addition, a solution containing 145 mM CsCl, 10 mM HEPES, 10 mM EGTA and 1 mM MgCl2 (pH 7.2 adjusted with CsOH) can be used. The standard bath solution contained 150 mM NaCl, 10 mM HEPES, 10 mM glucose, 4.5 mM KCl, 1 mM EGTA, 3 mM MgCl2, with pH adjusted to 7.4 with NaOH. In some instances, 2 mM CaCl2 was added in place of EGTA and the concentration of MgCl2 was reduced to 1 mM.
Data were collected either by continuous recordings at -60 mV or by applying voltage ramps from a holding potential of 0 mV every 4 s. Continuous recordings were collected at 400 Hz and digitally filtered off-line at 10 Hz for presentation. Voltage ramps were applied from - 100 mV to 100 mV over the course of 400 ms, and data were collected at 10 kHz and filtered at 2.9 kHz. Inward and outward currents were analyzed from the ramps at -80 and 80 mV, respectively. Liquid junction potential correction was not used.
Solutions were switched using a gravity-fed continuous focal perfusion system. To achieve rapid temperature changes, two temperature control, and perfusion systems were employed simultaneously. For temperatures ≥ 22°C, a Warner Instruments bipolar temperature controller (TC-344B) and inline heater (SHM-8) were used. […] Temperatures were confirmed using a thermistor (Warner Instruments, TA-29), with temperatures at the recorded cell estimated to be within +/- 2°C of those reported.
The antagonist effects of compounds of Formula (Ia) against human TRPA1 ("hTRPA1") and for some compounds rat TRPA1 ("rTRPA1") in a whole cell patch configuration were evaluated using the in vitro assay described above. The current activation tested was 10 µM AITC, and the tested concentrations ranged from 5 µM and 500 nM. Table 1a (Comparative Compounds)

rats = assay: Rodent formalin pain model (Example 3); assay type: in vivo; details: rat; for Minimal Efficacious Dose of Compound in Formalin Model: IV, statistically significant difference vs vehicle at 0 - 2 min (p≤0.05); for Duration of Pain Behavior: first two minutes after formalin, vehicle 88.6
Protocol: Compounds of Formula (Ia) are active in rodent models of pain induced by direct activation of the TRPA1 channel with intraplantar injection of the TRPA1 agonist formalin. Compounds of Formula (Ia) were tested in the formalin-induced pain test reported by Abbott et. al. Pain. 1995 Jan;60(1):91-102. Dubuisson et al. describe a method for assessing pain and analgesia in rats. Briefly, dilute formalin (50 µL of 3 % formalin) is injected into the plantar surface of the hind paw. […] The individual responsible for counting the pain behaviors in a particular study is blinded to the treatment groups.
Table 2 is a data table showing the results from testing compounds of Formula (Ia) in the rodent formalin-induced pain model described in […]. Rats were treated with the compounds of Formula (Ia) at various doses (0.1, 0.3, 1, 1.2, 3, 4, 10, or 30 mg/Kg IV) or with a control composition containing the vehicle (i.e., without a compound of Formula (Ia)). Pain behaviors (flinch, lift, lick, bite) were monitored following intraplantar formalin injection. Referring to Table 2, the minimum effective dose was derived from dose resulting in statistically significant difference in behavior at 0 - 2 min time period as compared with vehicle (p≤0.05).

[1] = Aqueous solubility in buffered solutions, HPLC (Example 2); assay type: physicochemical; details: kinetic from dmso stock, ambient temperature
[2] = sodium bicarbonate buffer in water for injection/5% dextrose, pH 9.0, 50 mM sodium bicarbonate, read-out: pH 9.0 aqueous solubility
[3] = sodium phosphate buffer in water for injection/5% dextrose, pH 7.4, 75 mM sodium phosphate, read-out: pH 7.4 aqueous solubility

IC50 (human TRPA1) | SMILES | also measured
> 100 nM | C[C@H]1CCCN1c1cncc(NC(=O)[C@H](C)N2C=NC3C2C(=O)N(C)C(=O)N3C)n1 (stereo partly shown) [Comparator 5, reference compound] | –
> 100 nM | C[C@H]1CCCN1c1cccc(NC(=O)[C@H](C)N2C=NC3C2C(=O)N(C)C(=O)N3C)n1 (stereo partly shown) [Comparator 6, reference compound] | –
< 25 nM | C[C@@H](C(=O)Nc1cccc(-c2cnc(N3CCC[C@H]3C(F)(F)F)nc2)n1)n1cnc2c1c(=O)n(C)c(=O)n2C [Compound 1-B, (S)-2-(1,3-Dimethyl-2,6-dioxo-1,2,3,6-tetrahydro-7H-purin-7-yl)-N-(6-(2-((S)-2-(trifluoromethyl)pyrrolidin-1-yl)pyrimidin-5-yl)pyridin-2-yl)propanamide] | Minimal Efficacious Dose of Compound in Formalin Model (rats): <3 mg/kg; Duration of Pain Behavior (rats; dose 3 mg/kg IV): 6.1 s; Duration of Pain Behavior (rats; dose 10 mg/kg IV): 0.3 s; solubility kinetic at 24 h [1, 2]: 49 µg/mL (≈ 90.2 µM); solubility kinetic at 24 h [1, 3]: 44 µg/mL (≈ 81 µM)
< 25 nM | CC(C(=O)Nc1cccc(-c2cnc(N3CCC[C@H]3C(F)(F)F)nc2)n1)n1cnc2c1c(=O)n(C)c(=O)n2C (stereo partly shown) [Compound 1-C] | –
> 100 nM | C[C@H](C(=O)Nc1cccc(-c2cnc(N3CCC[C@H]3C(F)(F)F)nc2)n1)n1cnc2c1c(=O)n(C)c(=O)n2C [Compound 1-D] | –
< 25 nM | C[C@@H](C(=O)Nc1cncc(-c2cnc(N3CCCC3(C)C)nc2)n1)n1cnc2c1c(=O)n(C)c(=O)n2C [Compound 2-F, (S)-2-(1,3-dimethyl-2,6-dioxo-1,2,3,6-tetrahydro-7H-purin-7-yl)-N-(6-(2-(2,2-dimethylpyrrolidin-1-yl)pyrimidin-5-yl)pyrazin-2-yl)propanamide] | Minimal Efficacious Dose of Compound in Formalin Model (rats): 1 mg/kg; Duration of Pain Behavior (rats; dose 0.3 mg/kg IV): 67.5 s; Duration of Pain Behavior (rats; dose 1 mg/kg IV): 7 s; Duration of Pain Behavior (rats; dose 3 mg/kg IV): 5 s; solubility kinetic at 24 h [1, 2]: 6 µg/mL (≈ 11.9 µM); solubility kinetic at 24 h [1, 3]: 6 µg/mL (≈ 11.9 µM)
> 100 nM | C[C@H](C(=O)Nc1cncc(-c2cnc(N3CCCC3(C)C)nc2)n1)n1cnc2c1c(=O)n(C)c(=O)n2C [Compound 2-G] | –
< 25 nM | [2H]C([2H])([2H])n1c(=O)n(C)c(=O)c2c1ncn2[C@@H](C)C(=O)Nc1cncc(-c2cnc(N3CCCC3(C)C)nc2)n1 [Compound 2-H] | –
> 100 nM | [2H]C([2H])([2H])n1c(=O)n(C)c(=O)c2c1ncn2[C@H](C)C(=O)Nc1cncc(-c2cnc(N3CCCC3(C)C)nc2)n1 [Compound 2-I] | –
25 to 75 nM | C[C@H]1CCCN1c1ncc(-c2cncc(NC(=O)[C@H](C)n3cnc4c3c(=O)n(C)c(=O)n4C)n2)cn1 [Compound 3-K, (S)-2-(1,3-dimethyl-2,6-dioxo-1,2,3,6-tetrahydro-7H-purin-7-yl)-N-(6-(2-((S)-2-methylpyrrolidin-1-yl)pyrimidin-5-yl)pyrazin-2-yl)propanamide] | Minimal Efficacious Dose of Compound in Formalin Model (rats): <3 mg/kg; Duration of Pain Behavior (rats; dose 3 mg/kg IV): 13.5 s; Duration of Pain Behavior (rats; dose 10 mg/kg IV): 2.6 s; Duration of Pain Behavior (rats; dose 30 mg/kg IV): 3.4 s; solubility kinetic at 24 h [1, 2]: 48 µg/mL (≈ 97.9 µM); solubility kinetic at 24 h [1, 3]: 38 µg/mL (≈ 77.5 µM)
> 100 nM | C[C@H](C(=O)Nc1cncc(-c2cnc(N3CCC[C@@H]3C)nc2)n1)n1cnc2c1c(=O)n(C)c(=O)n2C [Compound 3-L] | –
< 25 nM | [2H]C([2H])([2H])n1c(=O)n(C)c(=O)c2c1ncn2[C@@H](C)C(=O)Nc1cncc(-c2cnc(N3CCC[C@@H]3C)nc2)n1 [Compound 3-M] | –
> 100 nM | C[C@H]1CCCN1c1ncc(-c2cncc(NC(=O)[C@H](C)n3cnc4c3c(=O)n(C)c(=O)n4C)n2)cn1 [Compound 3-N, (S)-2-(1,3-dimethyl-2,6-dioxo-1,2,3,6-tetrahydro-7H-purin-7-yl)-N-(6-(2-((S)-2-methylpyrrolidin-1-yl)pyrimidin-5-yl)pyrazin-2-yl)propanamide] | –
25 to 75 nM | C[C@H]1CCCN1c1ncc(-c2cccc(NC(=O)[C@H](C)n3cnc4c3c(=O)n(C)c(=O)n4C)n2)cn1 [Compound 4-P] | –
25 to 75 nM | CC(C(=O)Nc1cccc(-c2cnc(N3CCC[C@@H]3C)nc2)n1)n1cnc2c1c(=O)n(C)c(=O)n2C (stereo partly shown) [Compound 4-Q] | –
> 100 nM | C[C@H](C(=O)Nc1cccc(-c2cnc(N3CCC[C@@H]3C)nc2)n1)n1cnc2c1c(=O)n(C)c(=O)n2C [Compound 4-R] | –
< 25 nM | CC(C(=O)Nc1cncc(-c2cnc(N3CCC[C@H]3C(F)(F)F)nc2)n1)n1cnc2c1c(=O)n(C)c(=O)n2C (stereo partly shown) [Compound 5-U] | –
> 100 nM | C[C@H](C(=O)Nc1cncc(-c2cnc(N3CCC[C@H]3C(F)(F)F)nc2)n1)n1cnc2c1c(=O)n(C)c(=O)n2C [Compound 5-V] | –

SMILES | IC50 (human TRPA1) | also measured
CC(C)c1ccc(NC(=O)C(C)n2cnc3c2c(=O)n(C)c(=O)n3C)cc1 (stereo not shown) [Comparator 3, reference compound] | > 100 nM | –
C[C@H]1CCCN1c1ccc(-c2csc(NC(=O)C(C)(C)n3cnc4c3c(=O)n(C)c(=O)n4C)n2)cc1F [Comparator 4, reference compound] | > 100 nM | –
